# Measurements: patent US6303789A, “Benzamides with tetrahydrofuranyloxy substitutents as phosphodiesterase 4 inhibitors” (Byk Gulden Lomberg Chemische Fabrik GmbH, priority 1998, dated 2001)
# Tested on: PDE4
# Test: Inhibition of PDE4 activity (method of Bauer and Schwabe, adapted to microtiter plates)
# Assay type: biochemical
# Conditions: inhibitory concentration as -log IC50 (mol/l)
row,SMILES,"Inhibition of the PDE4 activity, -log IC50"
1,"COc1ccc(C(=O)Nc2c(Cl)cncc2Cl)cc1OC1COCC1OC (stereo not shown) [Compound 1, N-(3,5-Dichloropyridin-4-yl)-4-methoxy-3-(4-methoxytetrahydrofuran-3-yloxy)benzamide]",8.24
2,"CCOC1COCC1Oc1cc(C(=O)Nc2c(Cl)cncc2Cl)ccc1OC (stereo not shown) [Compound 2, N-(3,5-Dichloropyridin-4-yl)-3-(4-ethoxytetrahydrofuran-3-yloxy)-4-methoxybenzamide]",8.25
3,"COc1ccc(C(=O)Nc2c(Cl)cncc2Cl)cc1OC1COCC1OCc1ccccc1 (stereo not shown) [Compound 3, N-(3,5-Dichloropyridin-4-yl)-3-(4-benzyloxytetrahydrofuran-3-yloxy)-4-methoxybenzamide]",8.70
4,"COc1ccc(C(=O)Nc2c(Cl)cncc2Cl)c2c1OC1(COCC1OC)C2 (stereo not shown) [Compound 4, N-(3,5-Dichloropyridin-4-yl)-2,3-dihydro-4',7-dimethoxybenzofuran-2-spiro-3'-tetrahydro-furan-4-carboxamide]",8.11
5,"COc1ccc(C(=O)Nc2c(Cl)cncc2Cl)c2c1OC1(COCC1OCc1ccccc1)C2 (stereo not shown) [Compound 5, N-(3,5-Dichloropyridin-4-yl)-2,3-dihydro-4'-benzyloxy-7-methoxybenzofuran-2-spiro-3'-tetrahydrofuran-4-carboxamide]",8.58
6,"COc1ccc(C(=O)Nc2c(Cl)cncc2Cl)cc1OC1COCC1O (stereo not shown) [Compound 6, N-(3,5-Dichloropyridin-4-yl)-3-(4-hydroxytetrahydrofuran-3-yloxy)-4-methoxybenzamide]",8.02
7,"COc1ccc(C(=O)Nc2c(Cl)cncc2Cl)cc1OC1COCC1OCSC (stereo not shown) [Compound 7, N-(3,5-Dichloropyridin-4-yl)-4-methoxy-3-(4-methylthiomethyloxytetrahydrofuran-3-yloxy)-benzamide]",8.54
